Data from PubChem BioAssay (NCI).
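All cell lines were grown in 96-well plates and treated with compound for 48 hours. GI50 = concentration required for 50% inhibition of growth. TGI is the concentration that stops growth completely.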

Legend:
Test in all cases: DTP human tumour cell line panel, 48 h
LOX IMVI melanoma = tested on: LOX IMVI melanoma
KM20L2 colon = tested on: KM20L2 colon
SK-MEL-28 melanoma = tested on: SK-MEL-28 melanoma
SK-OV-3 ovarian = tested on: SK-OV-3 ovarian
IGROV1 ovarian = tested on: IGROV1 ovarian
A498 renal = tested on: A498 renal
UACC-62 melanoma = tested on: UACC-62 melanoma
A549 NSCLC = tested on: A549 NSCLC
SNB-19 CNS = tested on: SNB-19 CNS
SN12C renal = tested on: SN12C renal
HT29 colon = tested on: HT29 colon
CCRF-CEM leukemia = tested on: CCRF-CEM leukemia
OVCAR-3 ovarian = tested on: OVCAR-3 ovarian
SNB-75 CNS = tested on: SNB-75 CNS
K-562 leukemia = tested on: K-562 leukemia
SW-620 colon = tested on: SW-620 colon
M14 melanoma = tested on: M14 melanoma
HCC-2998 colon = tested on: HCC-2998 colon
MALME-3M melanoma = tested on: MALME-3M melanoma
OVCAR-5 ovarian = tested on: OVCAR-5 ovarian
RPMI-8226 leukemia = tested on: RPMI-8226 leukemia
OVCAR-4 ovarian = tested on: OVCAR-4 ovarian
NCI-H23 lung = tested on: NCI-H23 lung
EKVX NSCLC = tested on: EKVX NSCLC
UO-31 renal = tested on: UO-31 renal
M19-MEL melanoma = tested on: M19-MEL melanoma
HOP-92 NSCLC = tested on: HOP-92 NSCLC
786-0 renal = tested on: 786-0 renal
OVCAR-8 ovarian = tested on: OVCAR-8 ovarian
SK-MEL-5 melanoma = tested on: SK-MEL-5 melanoma
NCI-H460 lung = tested on: NCI-H460 lung
LXFL 529 NSCLC = tested on: LXFL 529 NSCLC
HOP-62 NSCLC = tested on: HOP-62 NSCLC
NCI-H522 lung = tested on: NCI-H522 lung
HCT-15 colon = tested on: HCT-15 colon
SF-268 CNS = tested on: SF-268 CNS
ACHN renal = tested on: ACHN renal
HCT-116 colon = tested on: HCT-116 colon
SF-295 CNS = tested on: SF-295 CNS
UACC-257 melanoma = tested on: UACC-257 melanoma
SK-MEL-2 melanoma = tested on: SK-MEL-2 melanoma
MOLT-4 leukemia = tested on: MOLT-4 leukemia
COLO 205 colon = tested on: COLO 205 colon
TK-10 renal = tested on: TK-10 renal
U251 CNS = tested on: U251 CNS
DLD-1 colon = tested on: DLD-1 colon
DMS 273 small cell lung = tested on: DMS 273 small cell lung
KM12 colon = tested on: KM12 colon
DMS 114 small cell lung = tested on: DMS 114 small cell lung
CAKI-1 renal = tested on: CAKI-1 renal
NCI-H226 lung = tested on: NCI-H226 lung
RXF 393 renal = tested on: RXF 393 renal
SNB-78 CNS = tested on: SNB-78 CNS
SF-539 CNS = tested on: SF-539 CNS
SR leukemia = tested on: SR leukemia
MDA-MB-231 breast = tested on: MDA-MB-231 breast
DU-145 prostate = tested on: DU-145 prostate
MDA-MB-435 = tested on: MDA-MB-435
T-47D breast = tested on: T-47D breast
PC-3 prostate = tested on: PC-3 prostate
HL-60(TB) leukemia = tested on: HL-60(TB) leukemia
BT-549 breast = tested on: BT-549 breast
MCF7 breast = tested on: MCF7 breast
HS 578T breast = tested on: HS 578T breast
NCI/ADR-RES ovarian = tested on: NCI/ADR-RES ovarian
MDA-N = tested on: MDA-N

Cc1cc2c(=O)cc(-c3cccs3)oc2c(C(=O)O)c1C
TGI (LOX IMVI melanoma): > 100 µM
TGI (KM20L2 colon): > 100 µM
TGI (SK-MEL-28 melanoma): > 100 µM
TGI (SK-OV-3 ovarian): > 100 µM
TGI (IGROV1 ovarian): > 100 µM
TGI (A498 renal): > 100 µM
TGI (UACC-62 melanoma): > 100 µM
TGI (A549 NSCLC): > 100 µM
TGI (SNB-19 CNS): > 100 µM
TGI (SN12C renal): > 100 µM
TGI (HT29 colon): > 100 µM
TGI (CCRF-CEM leukemia): > 100 µM
TGI (OVCAR-3 ovarian): > 100 µM
TGI (SNB-75 CNS): 37.6 µM
TGI (K-562 leukemia): > 100 µM
TGI (SW-620 colon): > 100 µM
TGI (M14 melanoma): > 100 µM
TGI (HCC-2998 colon): > 100 µM
TGI (MALME-3M melanoma): > 100 µM
TGI (OVCAR-5 ovarian): > 100 µM
TGI (RPMI-8226 leukemia): > 100 µM
TGI (OVCAR-4 ovarian): > 100 µM
TGI (NCI-H23 lung): > 100 µM
TGI (EKVX NSCLC): > 100 µM
TGI (UO-31 renal): > 100 µM
TGI (M19-MEL melanoma): > 100 µM
TGI (HOP-92 NSCLC): > 100 µM
TGI (786-0 renal): > 100 µM
TGI (OVCAR-8 ovarian): > 100 µM
TGI (SK-MEL-5 melanoma): > 100 µM
TGI (NCI-H460 lung): > 100 µM
TGI (LXFL 529 NSCLC): > 100 µM
TGI (HOP-62 NSCLC): > 100 µM
TGI (NCI-H522 lung): 48.4 µM
TGI (HCT-15 colon): > 100 µM
TGI (SF-268 CNS): > 100 µM
TGI (ACHN renal): > 100 µM
TGI (HCT-116 colon): > 100 µM
TGI (SF-295 CNS): > 100 µM
TGI (UACC-257 melanoma): > 100 µM
TGI (SK-MEL-2 melanoma): > 100 µM
TGI (MOLT-4 leukemia): > 100 µM
TGI (COLO 205 colon): > 100 µM
TGI (TK-10 renal): > 100 µM
TGI (U251 CNS): > 100 µM
TGI (DLD-1 colon): > 100 µM
TGI (DMS 273 small cell lung): > 100 µM
TGI (KM12 colon): > 100 µM

COc1ccc2c(c1)OCCCN(C)OC2c1ccccc1 (centres undefined)
TGI (KM20L2 colon): > 100 µM
TGI (SK-MEL-28 melanoma): > 100 µM
TGI (SK-OV-3 ovarian): > 100 µM
TGI (IGROV1 ovarian): > 100 µM
TGI (UACC-62 melanoma): > 100 µM
TGI (A549 NSCLC): > 100 µM
TGI (SNB-19 CNS): > 100 µM
TGI (SN12C renal): > 100 µM
TGI (DMS 114 small cell lung): > 100 µM
TGI (CAKI-1 renal): > 100 µM
TGI (HT29 colon): > 100 µM
TGI (OVCAR-3 ovarian): > 100 µM
TGI (SNB-75 CNS): > 100 µM
TGI (K-562 leukemia): > 100 µM
TGI (SW-620 colon): > 100 µM
TGI (HCC-2998 colon): > 100 µM
TGI (NCI-H226 lung): > 100 µM
TGI (MALME-3M melanoma): > 100 µM
TGI (OVCAR-5 ovarian): > 100 µM
TGI (RPMI-8226 leukemia): > 100 µM
TGI (RXF 393 renal): > 100 µM
TGI (NCI-H23 lung): > 100 µM
TGI (EKVX NSCLC): > 100 µM
TGI (UO-31 renal): > 100 µM
TGI (M19-MEL melanoma): > 100 µM
TGI (786-0 renal): > 100 µM
TGI (OVCAR-8 ovarian): > 100 µM
TGI (SK-MEL-5 melanoma): > 100 µM
TGI (SNB-78 CNS): > 100 µM
TGI (LXFL 529 NSCLC): > 100 µM
TGI (SF-539 CNS): > 100 µM
TGI (HCT-15 colon): > 100 µM
TGI (SF-268 CNS): > 100 µM
TGI (ACHN renal): > 100 µM
TGI (HCT-116 colon): > 100 µM
TGI (SF-295 CNS): > 100 µM
TGI (UACC-257 melanoma): > 100 µM
TGI (SK-MEL-2 melanoma): > 100 µM
TGI (MOLT-4 leukemia): > 100 µM
TGI (COLO 205 colon): > 100 µM
TGI (SR leukemia): > 100 µM
TGI (TK-10 renal): > 100 µM
TGI (U251 CNS): > 100 µM
TGI (DMS 273 small cell lung): > 100 µM
TGI (KM12 colon): > 100 µM

N#C/C(=C/NC(=S)NCc1ccccc1)C(N)=O
TGI (LOX IMVI melanoma): > 100 µM
TGI (MDA-MB-231 breast): > 100 µM
TGI (DU-145 prostate): > 100 µM
TGI (SK-MEL-28 melanoma): > 100 µM
TGI (SK-OV-3 ovarian): > 100 µM
TGI (IGROV1 ovarian): > 100 µM
TGI (A498 renal): > 100 µM
TGI (UACC-62 melanoma): > 100 µM
TGI (A549 NSCLC): > 100 µM
TGI (SNB-19 CNS): > 100 µM
TGI (SN12C renal): > 100 µM
TGI (CAKI-1 renal): > 100 µM
TGI (HT29 colon): > 100 µM
TGI (CCRF-CEM leukemia): > 100 µM
TGI (OVCAR-3 ovarian): > 86.1 µM
TGI (SNB-75 CNS): > 100 µM
TGI (K-562 leukemia): > 100 µM
TGI (SW-620 colon): > 100 µM
TGI (M14 melanoma): > 100 µM
TGI (HCC-2998 colon): > 100 µM
TGI (NCI-H226 lung): > 100 µM
TGI (MALME-3M melanoma): > 100 µM
TGI (OVCAR-5 ovarian): > 100 µM
TGI (MDA-MB-435): > 100 µM
TGI (RPMI-8226 leukemia): > 100 µM
TGI (RXF 393 renal): > 100 µM
TGI (T-47D breast): > 100 µM
TGI (OVCAR-4 ovarian): > 100 µM
TGI (NCI-H23 lung): > 100 µM
TGI (PC-3 prostate): > 100 µM
TGI (EKVX NSCLC): > 100 µM
TGI (UO-31 renal): > 100 µM
TGI (HOP-92 NSCLC): > 100 µM
TGI (786-0 renal): > 100 µM
TGI (OVCAR-8 ovarian): > 100 µM
TGI (SK-MEL-5 melanoma): > 100 µM
TGI (HL-60(TB) leukemia): > 100 µM
TGI (NCI-H460 lung): > 100 µM
GI50 (BT-549 breast): > 100 µM
TGI (BT-549 breast): > 100 µM
TGI (HOP-62 NSCLC): > 100 µM
TGI (NCI-H522 lung): > 100 µM
TGI (SF-539 CNS): > 100 µM
TGI (HCT-15 colon): > 100 µM
TGI (SF-268 CNS): > 100 µM
TGI (MCF7 breast): > 100 µM
TGI (ACHN renal): > 100 µM
TGI (HCT-116 colon): > 100 µM
TGI (HS 578T breast): > 100 µM
TGI (SF-295 CNS): > 100 µM
TGI (NCI/ADR-RES ovarian): > 100 µM
TGI (UACC-257 melanoma): > 100 µM
TGI (SK-MEL-2 melanoma): > 100 µM
TGI (MOLT-4 leukemia): > 100 µM
TGI (COLO 205 colon): > 100 µM
TGI (SR leukemia): > 100 µM
GI50 (TK-10 renal): > 100 µM
TGI (TK-10 renal): > 100 µM
TGI (U251 CNS): > 100 µM
TGI (KM12 colon): > 100 µM
TGI (MDA-N): > 100 µM
